Measurements from patent publication US6087336A, “Peptide derivatives useful in treating autoimmune diseases” (Zeneca Limited, priority 1996, dated 2000).

How the values were obtained:
HLA-DR4Dw4 = target: T1, HLA-DR4Dw4 (Homo sapiens, UniProt P01903+P01911, A100K/A169T/F76Y/I96L/K127E/L162R/M171V/N62H/P40V/Q125Y/R42H/S133A/S149N/S66Y/V115G/V209L/W38E); test: Test A: purified HLA-DR peptide in vitro binding assay; conditions: compared with the other isolated diastereomer
T1 construct: a cDNA encoding the β chain is cloned into the transfer vector pAcUW1; made in house; host or cells: Sf21 insect cells, double-recombinant baculovirus
Protocol: Test A: Purified HLA-DR peptide in vitro binding assay. […]. At the end of the incubation period 100 μl of the incubate is transferred to Enzyme Linked lmmunoSorbant Assay (ELISA) plates (Nunc) previously coated with an anti-MHC antibody (L243--American Type Culture Collection (ATCC) HB55 --as described in Lampson and Levy (1980) J. Immunol. 125, 293-299) at a concentration of 10 μg/ml for 1 hour at room temperature and blocked thereafter for 1 hour with 1% bovine serum albumin (BSA) in PBS and 0.05% Tween 20. After a further 1 hour period the unbound peptide is washed away and a 1/4,000 dilution of streptavidin peroxidase (Sigma) in PBS with 0.01% of a suitable detergent such as NP40 (Sigma) added for 2 hours at room temperature. After further washing, tetramethylbenzidene (TMB) substrate solution (1 TMB tablet (Sigma) in 10 mIs of 0.1 M citrate/acetate buffer, pH 6.0 with 36 μl urea hydrogen peroxide (UHPO) (Fluka)) is added to each of the plates. The reaction is stopped by adding 2M sulphuric acid (10 μl per well) and the absorbance read at 450 nm to quantify the amount of peptide bound. The inhibitory activity of peptides is obtained by plotting absorbance against concentration.
The purified HLA-DR4Dw4 may be obtained as follows:
(i) Expression of HLA-DR in the Baculovirus System
The expression of recombinant proteins in insect cells from baculovirus vectors is an established procedure to obtain high yields of recombinant protein [Luckow, V A & Summers, M D, 1988, Biotechnology, 6, 47-551]. To enable the expression of the heterodimeric HLA-DR, eg. HLA-DR4Dw4, from a single recombinant baculovirus vector (as opposed to having separate recombinant viruses for the α and β chains and then doing a co-infection), a double-recombinant baculovirus is constructed which carries both the α and β chains.
A cDNA encoding the sequence of the α polypeptide is cloned into the transfer vector pacYM1 [Matsuura, Y; Possee, R D; Overton, H A & Bishop, D H L, 1987, J. Gen. […] The molecular genetic techniques used to construct the recombinant vectors are likewise readily available in the literature and are most fully described by Sambrook, J; Fritsch, E F & Maniatis T, (1989) [Molecular Cloning. […]
To create the double-recombinant baculovirus, a cDNA encoding the β chain is cloned into the transfer vector pAcUW1 [Weyer, U; Knight, S & Possee, R D, 1990, J. Gen. […] Double-recombinant viruses are detected by spotting insect cells, infected with randomly picked viruses from the transfection, onto membranes and reacting them with a monoclonal antibody, e.g. L243, which specifically recognises the HLA-DR heterodimer. Binding of the antibody to Sf21 insect cells is detected using standard flow cytometry techniques, readily available in the literature. […]

[1] = system: B52.24 murine T cell hybridoma line; test: Test B: inhibition of T cell activation in vitro; type: cell-based; conditions: compared with the other isolated diastereomer
Description: Test B: Inhibition of T cell activation in vitro.
. B52.24 was produced by the fusion of lymph node T cells taken from FHA307-320 immunised HLA-DR4Dw4 transgenic mice (International Patent Application, Publication No WO95/03331) with the BW5147 murine T cell lymphoma line (White et al (1989) J. Immunol. 143, 1822) as outlined in Woods et al (1994) J. Exp. Med. 180, 173-181 and following the general methods for the generation of T cell hybridomas given in Current Protocols in Immunology, Volume 2, 7.21.
Inhibitor peptides at concentrations between 100 and 0.1 μM (or lower) were mixed with the antigenic peptide FHA307-320 in either varying concentrations between 100 and 0.1 μM or at a fixed concentration of 10 μM by dilution in RPM1-1640 culture media (Gibco) in a 96-well mictrotitre plate (Nunc) in a final volume of 100 μl. […]
The culture plates containing supernatants to be assayed were left at room temperature to thaw and […] of supernatant was transferred to fresh 96 round bottomed well plates. […] The contents of each plate were harvested onto glass fibre filter mats and the radioactivity measured using a betaplate scintillation counter.

Phv-Ala-Ala-Ala-Lys-Val-III-Ala-Pip-NH2 [more polar diastereomer]
relative potency of diastereomers in Test A (HLA-DR4Dw4): more potent than the less polar diastereomer | relative potency of diastereomers in Test B [1]: more potent than the less polar diastereomer
